Earlier results in patent publication US10034825B2, “Luminate eye gel” (Jan Marini Skin Research, priority 2015, dated 2018).

Settings: after penetration through the skin to the living cells

fraction converted to free tocopherol: about 5%
SMILES: CC(=O)Oc1c(C)c(C)c2c(c1C)CCC(C)(CCC[C@H](C)CCC[C@H](C)CCCC(C)C)O2 (stereo partly shown) [Tocopheryl acetate]
